This assay deals with T1, recombinant human NK3 receptor (Homo sapiens, UniProt P29371).
T1 construct: expressed in transfected cells; host or cells: HEK293 cells (transient expression), membrane preparation
T1 sequence (P29371 1-465): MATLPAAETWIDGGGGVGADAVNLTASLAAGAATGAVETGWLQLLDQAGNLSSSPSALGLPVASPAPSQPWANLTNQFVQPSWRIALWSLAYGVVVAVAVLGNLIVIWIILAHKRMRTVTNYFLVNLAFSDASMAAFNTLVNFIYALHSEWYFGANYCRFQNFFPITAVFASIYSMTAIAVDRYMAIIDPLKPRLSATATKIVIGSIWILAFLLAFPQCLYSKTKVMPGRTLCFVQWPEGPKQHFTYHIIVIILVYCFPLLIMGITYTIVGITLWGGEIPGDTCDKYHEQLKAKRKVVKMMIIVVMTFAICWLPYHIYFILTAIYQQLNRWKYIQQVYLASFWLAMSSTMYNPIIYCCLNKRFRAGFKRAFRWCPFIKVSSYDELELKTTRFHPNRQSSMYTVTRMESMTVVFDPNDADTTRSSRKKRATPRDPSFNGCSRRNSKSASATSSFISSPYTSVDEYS
Put plainly: [3H]SR142801 competition binding assay. Conditions: membrane from HEK293 cells transiently expressing recombinant human NK3 receptor; radioligand [3H]SR142801; 75 min at RT. The protocol: [^3H]SR142801 Competition Binding Assay
hNK3 receptor binding experiment were performed using [^3H]SR142801 (Catalog No. TRK1035, specific activity: 74.0 Ci/mmol, Amersham, GE Healthcare UK limited, Buckinghamshire, UK) and membrane isolated from HEK293 cells transiently expressing recombinant human NK3 receptor. After thawing, the membrane homogenates were centrifuged at 48,000×g for 10 min at 4° C., the pellets were resuspended in the 50 mM Tris-HCl, 4 mM MnCl2, 1 μM phosphoramidon, 0.1% BSA binding buffer at pH 7.4 to a final assay concentration of 5 μg protein/well. […] At the end of the incubation, membranes were filtered onto unitfilter (96-well white microplate with bonded GF/C filter preincubated 1 h in 0.3% PEI+0.3% BSA, Packard BioScience, Meriden, Conn.) with a Filtermate 196 harvester (Packard BioScience) and washed 4 times with ice-cold 50 mM Tris-HCl, pH 7.4 buffer. Nonspecific binding was measured in the presence of 10 μM SB222200 for both radioligands. The radioactivity on the filter was counted (5 min) on a Packard Top-count microplate scintillation counter with quenching correction after addition of 45 μl of microscint 40 (Canberra Packard S.A., Zürich, Switzerland) and shaking for 1 h. Inhibition curves were fitted according to the Hill equation: y=100/(1+(x/IC50)^nH), where nH=slope factor using Excel-fit 4 software (Microsoft). IC50 values were derived from the inhibition curve and the affinity constant (Ki) values were calculated using the Cheng-Prussoff equation Ki=IC50/(1+[L]/KD) where [L] is the concentration of radioligand and KD is its dissociation constant at the receptor, derived from the saturation isotherm. All experiments were performed in duplicate and the mean±standard error (SEM) of the individual Ki values was calculated.

As to `COc1cc2nc(N3CCC(Cc4ccccc4)(C(=O)NCc4cccnc4)CC3)nc(N)c2cc1OC` [Example 1, 1-(4-Amino-6,7-dimethoxy-quinazolin-2-yl)-4-benzyl-piperidine-4-carboxylic acid (pyridin-3-ylmethyl)-amide], the Ki – broadly, a dissociation constant, usually derived from enzyme kinetics or from competition with a known ligand – is 0.0909 µM.

Take `COc1cc2nc(N3CCC(Cc4ccccc4)(C(=O)NCc4cccnc4)CC3)nc(O)c2cc1OC` [Example 2, 4-Benzyl-1-(4-hydroxy-6,7-dimethoxy-quinazolin-2-yl)-piperidine-4-carboxylic acid (pyridin-3-ylmethyl)-amide]: the Ki was 0.0661 µM.

Regarding `COc1cc2nc(N3CCC(Cc4ccc(F)cc4)(C(=O)NCc4ccccc4)CC3)nc(N)c2cc1OC` [Example 4, 1-(4-Amino-6,7-dimethoxy-quinazolin-2-yl)-4-(4-fluoro-benzyl)-piperidine-4-carboxylic acid benzylamide], the Ki was 0.0373 µM.

In the case of `COc1cc2nc(N3CCC(Cc4ccccc4)(C(=O)NCc4ccccc4)CC3)nc(N)c2cc1OC` [Example 10, l-(4-Amino-6,7-dimethoxy-quinazolin-2-yl)-4-benzyl-piperidine-4-carboxylic acid benzylamide], the Ki worked out at 0.0183 µM.

As to `COc1cc2nc(N3CCC(Cc4ccccc4)(C(=O)NCc4ccccc4)CC3)nc(N(C)C)c2cc1OC` [Example 14, 4-Benzyl-1-(4-dimethylamino-6,7-dimethoxy-quinazolin-2-yl)-piperidine-4-carboxylic acid benzylamide], the inhibition constant Ki worked out at 0.0732 µM.

As to `COc1cc2nc(N3CCC(Cc4ccccc4)(C(=O)NCc4ccccc4)CC3)nc(NC3CC3)c2cc1OC` [Example 15, 4-Benzyl-1-(4-cyclopropylamino-6,7-dimethoxy-quinazolin-2-yl)-piperidine-4-carboxylic acid benzylamide], the Ki was found to be 0.0693 µM.

Take `O=C(NCc1ccccc1)C1(Cc2ccccc2)CCN(c2nc(O)c3cc(F)c(Cl)cc3n2)CC1` [Example 16, 4-Benzyl-1-(7-chloro-6-fluoro-4-hydroxy-quinazolin-2-yl)-piperidine-4-carboxylic acid benzylamide]: the Ki stood at 0.0347 µM.

For the compound `COc1cc2nc(N3CCC(Cc4ccccc4)(C(=O)NCc4ccccc4)CC3)nc(O)c2cc1OC` [Example 17, 4-Benzyl-1-(4-hydroxy-6,7-dimethoxy-quinazolin-2-yl)-piperdine-4-carboxylic acid benzylamide], the Ki amounted to 0.0036 µM.

With `COc1cc2nc(N3CCC(Cc4ccccc4)(C(=O)NC4Cc5ccccc5C4)CC3)nc(N)c2cc1OC` [Example 19, 1-(4-Amino-6,7-dimethoxy-quinazolin-2-yl)-4-benzyl-piperidine-4-carboxylic acid indan-2-ylamie], the inhibitory constant (Ki) came out at 0.0278 µM.

For `COc1cc2nc(N3CCC(Cc4ccccc4)(C(=O)NCc4ccc(OC(F)F)cc4)CC3)nc(N)c2cc1OC` [Example 20, 1-(4-Amino-6,7-dimethoxy-quinazolin-2-yl)-4-benzyl-piperidine-4-carboxylic acid 4-difluoromethoxy-benzylamide], the Ki was determined as 0.0463 µM.

As for `COc1cc2nc(N3CCC(Cc4ccccc4)(C(=O)NC4CCCc5ccccc54)CC3)nc(N)c2cc1OC` (centres unmarked) [Example 23, 1-(4-Amino-6,7-dimethoxy-quinazolin-2-yl)-4-benzyl-piperidine-4-carboxylic acid (1,2,3,4-tetrahydro-naphthalen-1-yl)-amide], the inhibition constant (Ki) is 0.0466 µM.

Turning to `COc1cc2nc(N3CCC(Cc4ccccc4)(C(=O)NC(C)c4ccc(Cl)cc4)CC3)nc(N)c2cc1OC` (centres unmarked) [Example 25, 1-(4-Amino-6,7-dimethoxy-quinazolin-2-yl)-4-benzyl-piperidine-4-carboxylic acid [1-(4-chloro-phenyl)-ethyl]-amide], the Ki worked out at 0.0951 µM.

As for `COc1cc2nc(N3CCC(Cc4ccccc4)(C(=O)NCc4ccc(Cl)c(Cl)c4)CC3)nc(N)c2cc1OC` [Example 28, 1-(4-Amino-6,7-dimethoxy-quinazolin-2-yl)-4-benzyl-piperidine-4-carboxylic acid 3,4-dichloro-benzylamide], the Ki worked out at 0.0524 µM.

With `COc1cc2nc(N3CCC(Cc4ccccc4)(C(=O)NCc4ccc(N(C)C)cc4)CC3)nc(N)c2cc1OC` [Example 33, 1-(4-Amino-6,7-dimethoxy-quinazolin-2-yl)-4-benzyl-piperidine-4-carboxylic acid 4-dimethylamino-benzylamide], the Ki was determined as 0.0172 µM.

Consider `COc1cc2nc(N3CCC(Cc4ccccc4)(C(=O)NC4Cc5ccccc5C4O)CC3)nc(N)c2cc1OC` (centres unmarked) [Example 38, 1-(4-Amino-6,7-dimethoxy-quinazolin-2-yl)-4-benzyl-piperidine-4-carboxylic acid (1-hydroxy-indan-2-yl)-amide], for which the Ki worked out at 0.0075 µM.

Take `COc1cc2nc(N3CCC(Cc4ccccc4)(C(=O)N[C@H]4c5ccccc5C[C@@H]4O)CC3)nc(N)c2cc1OC` [Example 39, 1-(4-Amino-6,7-dimethoxy-quinazolin-2-yl)-4-benzyl-piperidine-4-carboxylic acid ((1S,2S)-2-hydroxy-indan-1-yl)-amide]: the Ki was 0.0036 µM.

`COc1cc2nc(N3CCC(Cc4ccccc4)(C(=O)NC4CCc5ccccc5C4)CC3)nc(N)c2cc1OC` (centres unmarked) [Example 40, 1-(4-Amino-6,7-dimethoxy-quinazolin-2-yl)-4-benzyl-piperidine-4-carboxylic acid (1,2,3,4-tetrahydro-naphthalen-2-yl)-amide]: the Ki came out at 0.0101 µM.

`COc1cc2nc(N3CCC(Cc4ccccc4)(C(=O)NC(CO)c4ccccc4)CC3)nc(N)c2cc1OC` (centres unmarked) [Example 41, 1-(4-Amino-6,7-dimethoxy-quinazolin-2-yl)-4-benzyl-piperidine-4-carboxylic acid (2-hydroxy-1-phenyl-ethyl)-amide]: the Ki turned out to be 0.0487 µM.

Consider `COc1cc2nc(N3CCC(Cc4ccccc4)(C(=O)NC4CCc5ccccc54)CC3)nc(N)c2cc1OC` (centres unmarked) [Example 44, 1-(4-Amino-6,7-dimethoxy-quinazolin-2-yl)-4-benzyl-piperidine-4-carboxylic acid indan-1-ylamide], for which the Ki is 0.0054 µM.

`COc1cc2nc(N3CCC(Cc4ccccc4)(C(=O)NCc4ccco4)CC3)nc(N)c2cc1OC` [Example 46, 1-(4-Amino-6,7-dimethoxy-quinazolin-2-yl)-4-benzyl-piperidine-4-carboxylic acid (furan-2-ylmethyl)-amide]: the inhibition constant Ki amounted to 0.0438 µM.

For the compound `COc1cc2nc(N3CCC(Cc4ccccc4)(C(=O)N4CCCC4c4ccccc4)CC3)nc(N)c2cc1OC` (centres unmarked) [Example 47, [1-(4-Amino-6,7-dimethoxy-quinazolin-2-yl)-4-benzyl-piperidin-4-yl]-(2-phenyl-pyrrolidin-1-yl)-methanone], the Ki amounted to 0.0467 µM.

As to `COc1cc2nc(N3CCC(Cc4ccccc4)(C(=O)N[C@H](C)c4ccccc4)CC3)nc(N)c2cc1OC` [Example 49, 1-(4-Amino-6,7-dimethoxy-quinazolin-2-yl)-4-benzyl-piperidine-4-carboxylic acid ((R)-1-phenyl-ethyl)-amide], the Ki came to 0.0206 µM.

For the compound `CC[C@@H](NC(=O)C1(Cc2ccccc2)CCN(c2nc(N)c3cc(OC)c(OC)cc3n2)CC1)c1ccccc1` [Example 51, 1-(4-Amino-6,7-dimethoxy-quinazolin-2-yl)-4-benyzl-piperidine-4-carboxylic acid ((R)-1-phenyl-propyl)-amide], the Ki is 0.0166 µM.

On to `COc1cc2nc(N3CCC(Cc4ccccc4)(C(=O)NC4CCCC4)CC3)nc(O)c2cc1OC` [Example 53, 4-Benzyl-1-(4-hydroxy-6,7-dimethoxy-quinazolin-2-yl)-piperidine-4-carboxylic acid cyclopentylamide], for which the Ki was 0.0254 µM.

On to `COc1cc2nc(N3CCC(Cc4ccccc4)(C(=O)N(C)Cc4ccccc4)CC3)nc(O)c2cc1OC` [Example 54, 4-Benzyl-1-(4-hydroxy-6,7-dimethoxy-quinazolin-2-yl)-piperidine-4-carboxylic acid benzyl-methyl-amide], for which the inhibition constant (Ki) was found to be 0.0048 µM.

As to `COc1cc2nc(N3CCC(Cc4ccccc4)(C(=O)NC4Cc5ccccc5C4)CC3)nc(O)c2cc1OC` [Example 55, 4-Benzyl-1-(4-hydroxy-6,7-dimethoxy-quinazolin-2-yl)-piperidine-4-carboxylic acid indan-2-ylamide], the Ki amounted to 0.0111 µM.

The record behind these values is US8318749B2, “Quinazoline derivatives as NK3 receptor antagonists” (Hoffmann-La Roche Inc., priority 2008, dated 2012).
